For data set [1], the target named is T1, CYP2D6 (Homo sapiens, UniProt P10635).
T1 construct: Human liver microsomes were obtained from BD Gentest; tissue BD Gentest; host or cells: human liver microsomes
Description: CYP inhibition assay in human liver microsomes (2D6). Type of data set: in vitro ADME. The conditions noted are these: for inhibition at 10 min, 10 µM: human liver microsomes; for inhibition of CYP2D6 (in words): 10 μM. On the procedure:
Compounds were tested to evaluate their inhibitory potential on CYP2D6 and CYP3A4 (midazolam) using human liver microsomes. Human liver microsomes were obtained from BD Gentest, and each compound was run in duplicate.
The test compounds and reference inhibitors (quinidine for 2D6, ketoconazole for 3A4) were plated in a 96-well plate by transferring 8 μL of 10 mM stock solutions of compound in DMSO to 12 μL of acetonitrile. Individual inhibitor spiking solutions were prepared for CYP2D6 and CYP3A4 (8 μL of DMSO stock added to 12 μL of acetonitrile). Next added 400 μL of 0.2 mg/mL HLM to the assay wells and then added 2 μL of 400× test compound into the designated wells on ice. Next, added 200 μL of 0.2 mg/mL HLM to the assay wells and then added 1 μL of reference inhibitor solutions into the designated wells. The following solutions were added (in duplicate) to a 96-well assay plate on ice: The test compounds and reference inhibitors (quinidine for 2D6, ketoconazole for 3A4) were tested using the following experimental procedure:
10. Incubate the assay plate at 37° C. 5 min for 3A4, 10 min for 2D6.
11. Stop the reaction by adding 120 μL of ACN containing Internal Standard. For CYP3A4, the internal standard is 1′OH-midazolam-D4 (10 μM solution diluted to a final concentration of 0.1 μM by adding 100 μL internal standard stock to 10 mL ACN). For CYP2D6, the internal standard is 1-OH-Bufuralol-maleate-[D9] (49 μM solution diluted to a final concentration of 0.1 μM by adding 20 μL internal standard stock to 10 mL ACN).
The assessment on CYP isoform inhibition is as follows based on the assay results: if percentage of CYP inhibition is higher than 50%, indicates potent inhibition; if percentage of CYP inhibition is between 30-50%, indicates […]; if percentage of CYP inhibition is less than 30%, indicates slight or no inhibition. If the percentage of CYP inhibition is less than −30%, this indicates the compound may have some kind of activation of this isoform.
(Liver microsomes are vesicles of endoplasmic reticulum, rich in cytochrome P450 enzymes.)

The target of data set [2] is T2, HDAC1 (Homo sapiens, UniProt Q13547).
T2 construct: purchased BPS Bioscience
T2 sequence (Q13547 whole entry): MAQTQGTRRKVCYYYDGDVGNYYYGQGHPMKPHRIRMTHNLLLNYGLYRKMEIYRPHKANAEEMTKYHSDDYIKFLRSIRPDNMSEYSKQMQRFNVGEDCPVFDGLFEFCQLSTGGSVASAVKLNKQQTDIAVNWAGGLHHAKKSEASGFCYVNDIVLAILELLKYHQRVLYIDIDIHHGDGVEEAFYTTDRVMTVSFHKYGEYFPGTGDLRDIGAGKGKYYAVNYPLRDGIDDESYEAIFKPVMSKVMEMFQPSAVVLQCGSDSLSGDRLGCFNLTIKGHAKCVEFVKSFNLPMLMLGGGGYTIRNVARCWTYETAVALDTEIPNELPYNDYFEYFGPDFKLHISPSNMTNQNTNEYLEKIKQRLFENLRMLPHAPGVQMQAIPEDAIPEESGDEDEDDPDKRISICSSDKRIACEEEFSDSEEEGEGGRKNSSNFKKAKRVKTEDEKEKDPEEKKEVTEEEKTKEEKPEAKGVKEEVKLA
Kind of data set: HDAC1 recombinant enzymatic assay. The conditions noted are these: 5 h pre-incubation, 5 nM enzyme; read-out: HDAC recombinant enzymatic IC50 HDAC1. Format: biochemical. On the procedure:
(§1) The following describes an assay protocol for measuring the deacetylation of a peptide substrate by the enzymes HDAC2 or HDAC1.
(§2) All recombinant human HDACs were purchased from BPS Bioscience. The substrate, FAM-TSRHK(AC)KL-CONH, was synthesized at NanoSyn. Final assay reactions contained 100 mM HEPES (pH 7.5), 50 mM KCl, 0.1% BSA, 0.01% Triton X-100, 1% DMSO, 1 uM substrate and 5 nM HDAC enzyme. Enzyme and compounds were pre-incubated at 25° C. for 5 hours and reactions were initiated by addition of substrate. 10 uL reactions were incubated for 17 hours at 25° C. and terminated by the addition of 40 uL of buffer containing 100 mM HEPES (pH 7.5), 0.1% BSA, 0.01% Triton X-100 and 0.05% SDS. Substrate and product peptides present in each sample were separated electrophoretically using the LabChip 3000 capillary electrophoresis instrument. Change in the relative fluorescence intensity of the substrate and product peaks reflects enzyme activity. Reaction progress was determined as the product to sum ratio (PSR):P/(S+P), where P is the peak height of the product peptide and S is the peak height of the substrate peptide. Reactions were performed in duplicate at 12 concentrations, (3× serial dilutions starting at 30 uM). IC50 values were calculated using a 4 Parameter Logistic Model.

In data set [3] the target is HDAC2 (Homo sapiens, UniProt Q92769). Kind of data set: HDAC2 recombinant enzymatic assay. Type of data set: biochemical. Also noted: purchased BPS Bioscience. The following applies: 5 h pre-incubation, 5 nM enzyme; read-out: HDAC recombinant enzymatic IC50 HDAC2. On the procedure: as §1, §2
Chain of HDAC2 (Q92769 whole entry): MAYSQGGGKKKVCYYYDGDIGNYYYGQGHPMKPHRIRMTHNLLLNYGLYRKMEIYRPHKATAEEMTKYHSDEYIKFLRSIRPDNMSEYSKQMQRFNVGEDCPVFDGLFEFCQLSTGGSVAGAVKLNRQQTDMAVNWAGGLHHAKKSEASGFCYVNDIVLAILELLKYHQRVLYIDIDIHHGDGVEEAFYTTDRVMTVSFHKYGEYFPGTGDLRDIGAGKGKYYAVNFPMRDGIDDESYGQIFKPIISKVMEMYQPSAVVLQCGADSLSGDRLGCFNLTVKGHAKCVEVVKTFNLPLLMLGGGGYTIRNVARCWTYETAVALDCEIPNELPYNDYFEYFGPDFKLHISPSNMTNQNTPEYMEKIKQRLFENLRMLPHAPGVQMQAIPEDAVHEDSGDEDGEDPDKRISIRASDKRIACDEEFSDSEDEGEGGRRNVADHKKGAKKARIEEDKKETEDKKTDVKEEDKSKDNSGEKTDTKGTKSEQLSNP

One may read the inhibition as the relative decrease from the control value, in per cent. As a reminder, the IC50 is the concentration that inhibits the measured activity by half.

T1 sequence (P10635 whole entry): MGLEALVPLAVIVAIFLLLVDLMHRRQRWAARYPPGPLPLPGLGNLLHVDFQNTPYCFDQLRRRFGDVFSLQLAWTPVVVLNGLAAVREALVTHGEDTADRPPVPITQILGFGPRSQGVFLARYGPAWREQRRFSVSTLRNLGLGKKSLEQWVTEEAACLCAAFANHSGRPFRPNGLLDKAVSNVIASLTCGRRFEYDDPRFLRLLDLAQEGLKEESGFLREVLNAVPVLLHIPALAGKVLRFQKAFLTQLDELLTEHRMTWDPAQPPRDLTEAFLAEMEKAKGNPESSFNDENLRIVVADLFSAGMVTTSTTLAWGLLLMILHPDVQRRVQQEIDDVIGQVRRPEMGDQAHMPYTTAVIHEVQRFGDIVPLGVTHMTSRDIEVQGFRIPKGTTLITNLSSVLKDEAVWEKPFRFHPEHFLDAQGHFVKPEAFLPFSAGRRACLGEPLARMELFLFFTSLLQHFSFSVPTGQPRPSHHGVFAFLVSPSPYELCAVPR

For `Nc1ccc(-c2ccc(F)cc2)cc1NC(=O)N1Cc2nccnc2C1` [Comparator A], the inhibition at 10 min, 10 µM in data set [1] turned out to be 34%. The results for the IC50 in data set [2] and in data set [3] were 27 nM and 142 nM, respectively.

As for `Nc1ccc(-c2cccs2)nc1NC(=O)N1Cc2nccnc2C1` [Comparator C], the inhibition at 10 min, 10 µM in data set [1] came out at 0.2%. Also, the values for the IC50 in data set [2] and in data set [3] were 95 nM and 301 nM, respectively.

For `COCc1cc2c(cn1)CN(C(=O)Nc1nc(-c3ccc(F)cc3F)ccc1N)C2` [Compound 1], in data set [1], the inhibition at 10 min, 10 µM was -1%. The IC50 in data set [2] amounted to 326 nM; in data set [3], 510 nM.

Turning to `Nc1ccc(-c2cccs2)nc1NC(=O)N1Cc2cncnc2C1` [Comparator E], in data set [1], the “inhibition of CYP2D6 (in words)” value is given as “significant inhibition”. The inhibition at 10 min, 10 µM in data set [1] was 50%. In addition, the IC50 in data set [2] worked out at 142 nM; in data set [3], 511 nM.

Take `Nc1ccc(-c2ccc(F)cc2)nc1NC(=O)N1Cc2nccnc2C1` [Comparator B]: the inhibition at 10 min, 10 µM in data set [1] came out at 9%. The IC50 in data set [2] was 119 nM; in data set [3], 475 nM.

Turning to `Nc1ccc(-c2ccc(F)cc2)nc1NC(=O)N1Cc2cncnc2C1` [Comparator D], in data set [1], the “inhibition of CYP2D6 (in words)” value was “significant inhibition” and the inhibition at 10 min, 10 µM turned out to be 85%. Further, the IC50 in data set [2] came to 239 nM. In addition, the IC50 in data set [3] stood at 627 nM.

Regarding `Cc1ncc2c(n1)CN(C(=O)Nc1nc(-c3cccs3)ccc1N)C2` [Compound 2], in data set [1], the “inhibition of CYP2D6 (in words)” value is “no significant inhibition” and the inhibition at 10 min, 10 µM was -5%. In addition, the IC50 in data set [2] came out at 133 nM.

The record behind these values is US11286256B2, “Bicyclic inhibitors of histone deacetylase” (Alkermes, Inc., priority 2017, dated 2022).
